We go through one compound from patent US20230022779A1, “DETECTION OF VIABLE MICROORGANISMS IN URINE” (Children's National Medical Center, priority 2021, published 2023).

Assay [1] concerns Klebsiella pneumoniae (ATCC 13883), phoE gene. The experiment in a line: PMA-qPCR of bacteria grown with ciprofloxacin. The format is cell-based. The following applies: 1000 μg/mL ciprofloxacin, 3 and 24-hour treatments. The text has this: The samples underwent PMA treatment, followed by DNA extraction, as described in Example 2. A primer set specific for K. pneumoniae that targets the gene phoE, derived from Shannon et al (doi:10.1016/j.scitotenv. 2007.02.039) was used in conjunction with the samples in a qPCR reaction.

The subject of a further assay is E. coli (UTI89). The experiment in a line: Mouse UTI model, ciprofloxacin treatment, urine culture and PMA-PCR. The settings on record: 10 mg/kg i.p. twice a day for 3 days from day 5 post-inoculation; urine one day after completion.

Each structure is given as a SMILES string. “And” between values parts separate entries of the source, which are not always exact repeats. Identical values can stand only once.

On to `O=C(O)c1cn(C2CC2)c2cc(N3CCNCC3)c(F)cc2c1=O` [ciprofloxacin, Ciprofloxacin], for which the “CT value of PMA-treated sample compared to non-PMA-treated equivalent” value in assay [1] was “greater CT”. Also, the “groups of mice with no growth on non-selective LB agar” value in the assay on E. coli (UTI89) is 3 of 5 and 3 out of the 5.
